Data published in patent publication US10344026B2, “Compositions and methods of targeting mutant K-ras” (NANTBIO, INC., priority 2017, dated 2019).

Legend:
Format in all cases: cell-based
wild type K-Ras = biological target: T1, wild type K-Ras (Homo sapiens, UniProt P01116); assay: G-LISA Ras activation, 293H cells transfected with Ras wild-type, EGF stimulated; conditions: compound 1 hour, then 100 ng/ml EGF 2 minutes
T1 construct: expressed in transfected cells; host or cells: 293H cells
Outline: (§1)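 Seed 293H cells, transfect with Ras wild-type or mutant vector, treat with compound (3.125-25 μM, 1 h), stimulate wild-type cells with EGF (100 ng/ml, 2 min), lyse in ice-cold buffer, then measure GTP-Ras by G-LISA.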

[1] = system: phospho-ERK in Panc1 (G12D); assay: In-Cell Western phospho-ERK, Panc1; conditions: Homo sapiens, PANC-1, 1 h; Panc1, one hour treatment; read-out: In-Cell Western Panc1 (G12D) Erk (P)
Outline: (§2)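 One-hour compound treatment of cells plated a day earlier, 0.5% DMSO. Phospho-signal detected by in-cell immunofluorescence imaging; EC50 calculated.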

[2] = system: phospho-Akt in A375 (Wild-type); assay: In-Cell Western phospho-Akt, A375; conditions: Homo sapiens, A-375, 1 h; A375, one hour treatment; read-out: In-Cell Western A375 (Wild-type) Akt (P)
Outline: as §2

[3] = system: phospho-ERK in A375 (Wild-type); assay: In-Cell Western phospho-ERK, A375; conditions: Homo sapiens, A-375, 1 h; A375, one hour treatment; read-out: In-Cell Western A375 (Wild-type) Erk (P)
Outline: as §2

[4] = system: A375 (K-Ras wild type cell line); assay: Viability assay (CellTiterBlue, 72 hr) A375; conditions: Homo sapiens, A-375, GI50, CellTiterBlue
Outline: (§3)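 GI50 calculation uses a window set by DMSO-treated wells (100% viability) and 100 uM tamoxifen (0%). Cells (1000/well) sit 18 hr at 37 °C, receive compound for 72 hr in 0.5% DMSO, then get CellTiterBlue for 3 hr before reading at Ex550/Em590.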

[5] = system: HCC827 (K-Ras wild type cell line); assay: Viability assay (CellTiterBlue, 72 hr) HCC827; conditions: Homo sapiens, GI50, CellTiterBlue, HCC827 K-Ras wild-type
Outline: as §3

[6] = system: phospho-ERK in Panc10.05 (G12D); assay: In-Cell Western phospho-ERK, Panc10.05; conditions: Homo sapiens, Panc1005, 1 h; Panc10.05, one hour treatment; read-out: In-Cell Western Panc10.05 (G12D) Erk (P)
Outline: as §2

[7] = system: phospho-Akt in Panc1 (G12D); assay: In-Cell Western phospho-Akt, Panc1; conditions: Homo sapiens, PANC-1, 1 h; Panc1, one hour treatment; read-out: In-Cell Western Panc1 (G12D) Akt (P)
Outline: as §2

Panc1-G12D = assay: Viability assay (CellTiterBlue, 72 hr) Panc1; conditions: Homo sapiens, PANC-1, GI50, CellTiterBlue, Panc1 K-Ras G12D, read-out: 72 hr Cell Viability Panc1 (G12D)
Outline: as §3

[8] = system: Ishikawa (K-Ras wild type cell line); assay: Viability assay (CellTiterBlue, 72 hr) Ishikawa; conditions: Homo sapiens, GI50, CellTiterBlue, Ishikawa K-Ras wild-type
Outline: as §3

HCT116-G31D = assay: Viability assay (CellTiterBlue, 72 hr) HCT116; conditions: Homo sapiens, HCT-116, GI50, CellTiterBlue, HCT116 K-Ras G13D, read-out: 72 hr Cell Viability HCT116 (G13D)
Outline: as §3

[9] = system: phospho-Akt in Panc10.05 (G12D); assay: In-Cell Western phospho-Akt, Panc10.05; conditions: Homo sapiens, Panc1005, 1 h; Panc10.05, one hour treatment; read-out: In-Cell Western Panc10.05 (G12D) Akt (P)
Outline: as §2

[10] = system: phospho-ERK in HCC827 (Wild-type); assay: In-Cell Western phospho-ERK, HCC827; conditions: Homo sapiens, 1 h; HCC827, one hour treatment; read-out: In-Cell Western HCC827 (Wild-type) Erk (P)
Outline: as §2

[11] = system: U87-MG (K-Ras wild type cell line); assay: Viability assay (CellTiterBlue, 72 hr) U87-MG; conditions: Homo sapiens, U-87 MG, GI50, CellTiterBlue, U87-MG K-Ras wild-type
Outline: as §3

K-Ras G12D = biological target: T2, K-Ras G12D (Homo sapiens, UniProt P01116, G12D); assay: G-LISA Ras activation, 293H cells transfected with G12D mutant; conditions: compound 1 hour
T2 construct: expressed in transfected cells; host or cells: 293H cells
Outline: as §1

Panc10.05-G12D = assay: Viability assay (CellTiterBlue, 72 hr) Panc10.05; conditions: Homo sapiens, Panc1005, GI50, CellTiterBlue, Panc10.05 K-Ras G12D, read-out: 72 hr Cell Viability Panc10.05 (G12D)
Outline: as §3

T2 sequence (P01116 whole entry G12D): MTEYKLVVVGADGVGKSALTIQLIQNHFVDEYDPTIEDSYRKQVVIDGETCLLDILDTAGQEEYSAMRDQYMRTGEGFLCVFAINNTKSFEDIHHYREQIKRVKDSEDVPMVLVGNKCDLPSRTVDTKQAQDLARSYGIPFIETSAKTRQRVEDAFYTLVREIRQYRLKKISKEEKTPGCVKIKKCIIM
T1 sequence (P01116 whole entry): as the sequence (P01116 whole entry G12D) above, with D12G counted along it

Compound	IC50 (wild type K-Ras)	EC50 [1]	EC50 [2]	EC50 [3]	IC50 [4]	IC50 [5]	EC50 [6]	EC50 [7]	IC50 (Panc1-G12D)	IC50 [8]	IC50 (HCT116-G31D)	EC50 [9]	EC50 [10]	IC50 [11]	IC50 (K-Ras G12D)	IC50 (Panc10.05-G12D)
COCCCN1C(=O)CCc2cc(-c3csc(NC(=O)c4oc(C)nc4C)n3)ccc21 [Compound 96, N-(4-(1-(3-methoxypropyl)-2-oxo-1,2,3,4-tetrahydroquinolin-6-yl)thiazol-2-yl)-2,4-dimethyloxazole-5-carboxamide]	12.1 µM	7 µM	6 µM	6 µM	> 25 µM	4 µM	1.1 µM	4 µM	4 µM	> 25 µM	3 µM	9 µM	7 µM	> 25 µM	5 µM	3 µM
Cn1nc(C(C)(C)C)cc1C(=O)Nc1nc(-c2ccc3c(c2)CCC(=O)N3)cs1 [Compound 43, 3-(tert-butyl)-1-methyl-N-(4-(2-oxo-1,2,3,4-tetrahydroquinolin-6-yl)thiazol-2-yl)-1H-pyrazole-5-carboxamide]	> 25 µM	> 25 µM	> 25 µM	> 25 µM	> 25 µM	> 25 µM	> 25 µM	> 25 µM	> 25 µM	> 25 µM	> 25 µM	> 25 µM	19 µM	> 25 µM	> 25 µM	> 25 µM
Cc1nc(C)c(C(=O)Nc2nc(-c3ccc4c(c3)CCC(=O)N4CCN(C)C)cs2)o1 [Compound 97, N-(4-(1-(2-(dimethylamino)ethyl)-2-oxo-1,2,3,4-tetrahydroquinolin-6-yl)thiazol-2-yl)-2,4-dimethyloxazole-5-carboxamide]	12.6 µM	5 µM	10 µM	8 µM	> 25 µM	5 µM	1.2 µM	6 µM	9 µM	> 25 µM	5 µM	12 µM	> 25 µM	> 25 µM	8.1 µM	4 µM
Cc1nc(C)c(C(=O)Nc2nc(-c3ccc4c(c3)CCC(=O)N4C3CCCC3)cs2)o1 [Compound 69, N-(4-(1-cyclopentyl-2-oxo-1,2,3,4-tetrahydroquinolin-6-yl)thiazol-2-yl)-2,4-dimethyloxazole-5-carboxamide]	18.6 µM	8 µM	2 µM	3 µM	> 25 µM	2 µM	2 µM	6 µM	7 µM	> 25 µM	2 µM	17 µM	5 µM	> 25 µM	8.1 µM	3 µM
COC(=O)CCCN1C(=O)CCc2cc(-c3csc(NC(=O)c4oc(C)nc4C)n3)ccc21 [Compound 100, methyl 4-(6-(2-(2,4-dimethyloxazole-5-carboxamido)thiazol-4-yl)-2-oxo-3,4-dihydroquinolin-1 (2H)-yl)butanoate]	9.5 µM	17 µM	5 µM	4 µM	4 µM	> 25 µM	3 µM	25 µM	5 µM	3 µM	> 25 µM	7 µM	3 µM	> 25 µM	5.5 µM	5 µM
COCCN1C(=O)CCc2cc(-c3csc(NC(=O)c4oc(C)nc4C)n3)ccc21 [Compound 95, N-(4-(1-(2-methoxyethyl)-2-oxo-1,2,3,4-tetrahydroquinolin-6-yl)thiazol-2-yl)-2,4-dimethyloxazole-5-carboxamide]	15.4 µM	10 µM	> 25 µM	> 25 µM	> 25 µM	5 µM	2 µM	6 µM	7 µM	> 25 µM	4 µM	14 µM	10 µM	> 25 µM	5.1 µM	4 µM
CCc1nc(C)c(C(=O)Nc2nc(-c3ccc4c(c3)CCC(=O)N4Cc3cccnc3)cs2)s1 [Compound 106, 2-ethyl-4-methyl-N-(4-(2-oxo-1-(pyridin-3-ylmethyl)-1,2,3,4-tetrahydroquinoinolin-6-yl)thiazol-2-yl)thiazole-5-carboxamide]	9.6 µM	5 µM	> 25 µM	20 µM	22 µM	> 25 µM	10 µM	25 µM	12 µM	> 25 µM	6 µM	> 25 µM	7 µM	> 25 µM	4.4 µM	3 µM
CCn1nc(C)c(C(=O)Nc2nc(-c3ccc4c(c3)CCC(=O)N4Cc3cccnc3)cs2)c1C [Compound 114, 1-ethyl-3,5-dimethyl-N-(4-(2-oxo-1-(pyridin-3-ylmethyl)-1,2,3,4-tetrahydroquinolin-6-yl)thiazol-2-yl)-1H-pyrazole-4-carboxamide]	6 µM	1.1 µM	> 25 µM	5 µM	6 µM	> 25 µM	1.9 µM	17 µM	22 µM	> 25 µM	5 µM	17 µM	4 µM	> 25 µM	3 µM	1.1 µM
Cc1nc(C(C)C)oc1C(=O)Nc1nc(-c2ccc3c(c2)CCC(=O)N3Cc2cccnc2)cs1 [Compound 91]	11.7 µM	8 µM	5 µM	5 µM	> 25 µM	3 µM	1.4 µM	4 µM	5 µM	> 25 µM	1.5 µM	12 µM	11 µM	> 25 µM	8.4 µM	2 µM
Cc1nn(C)cc1C(=O)Nc1nc(-c2ccc3c(c2)CCC(=O)N3Cc2cccnc2)cs1 [Compound 112, 1,3-dimethyl-N-(4-(2-oxo-1-(pyridin-3-ylmethyl)-1,2,3,4-tetrahydroquinolin-6-yl)thiazol-2-yl)-1H-pyrazole-4-carboxamide]	10.7 µM	4 µM	11 µM	8 µM	> 25 µM	4 µM	1 µM	5 µM	5 µM	> 25 µM	2 µM	18 µM	17 µM	> 25 µM	10 µM	3 µM
